Data: patent US20060194259A1, “Method for isolating an allosteric effector of a receptor” (priority 2002, published 2006)

Legend:
[1] = biological target: T1, receptor EGFP-NK2R (UniProt P16610); assay: Dissociation kinetics of NKA-Bo bound to EGFP-NK2R by fluorescence energy transfer; assay type: binding; parameters: % al (max): maximum value observed for the increase in amplitude of the rapid dissociation rate; ns = n; other: 20 nM of NK; % al (at 10 μM); other: compou; fused on or other part: EGFP fused to the receptor as FRET donor; conditions: for % al (at 10 μM): compound 10 μM, T = 22 ± 1 is amplitude of rapid dissociation in the absence of effector; for % al (max): maximum value observed for the increase in amplitude of the rapid dissociation rate / EC50 / EC50 (μM): concentration of compound causing a 50% increase (relative to the maximum value) in the percentage of the amplitude of the rapid dissociation rate: Table 1, ns = not significant; for EC50: read-out: EC50 (μM): concentration of compound causing a 50% increase (relative to the maximum value) in the percentage of the amplitude of the rapid dissociation rate; for EC50 / EC50 (μM): concentration of compound causing a 50% increase (relative to the maximum value) in the percentage of the amplitude of the rapid dissociation rate: dissociation of NKA-Bo from EGFP-NK2R
T1 sequence (P16610 1-390): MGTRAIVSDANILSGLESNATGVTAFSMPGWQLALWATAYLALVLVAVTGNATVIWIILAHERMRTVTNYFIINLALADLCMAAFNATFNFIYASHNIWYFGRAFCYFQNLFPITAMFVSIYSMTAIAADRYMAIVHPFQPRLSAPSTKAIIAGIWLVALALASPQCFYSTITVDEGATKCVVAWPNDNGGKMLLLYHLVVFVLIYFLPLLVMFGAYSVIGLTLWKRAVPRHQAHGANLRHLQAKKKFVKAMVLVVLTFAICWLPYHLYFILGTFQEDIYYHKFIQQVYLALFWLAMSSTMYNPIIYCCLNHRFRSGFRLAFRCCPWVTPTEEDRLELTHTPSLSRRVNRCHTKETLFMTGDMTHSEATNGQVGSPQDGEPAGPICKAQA
Procedure: Dissociation (FIG. 4B): HEK 293 cells expressing the receptor EGFP-NK2R are put into suspension at a concentration of 1,000,000 cells/ml in Hepes physiological buffer (in mM: 137.5 NaCl; 1.25 MgCl2; 1.25 CaCl2; 6 KCl; 5.6 glucose; 10 Hepes; 0.4 NaH2PO4; 1% BSA (w/v); pH 7.4) and arranged in a 1 ml cuvette equipped with a magnetic stirrer on the cuvette holder of a SPEX fluorolog 3 spectrofluorimeter.
(§1) The amplitude of each relaxation is then given by the adjustment of the experimental traces.

[2] = biological target: T1, receptor EGFP-NK2R; assay: Reversion of the binding of NKA-Bo to EGFP-NK2R by fluorescence energy transfer; parameters: % al (max): maximum value observed for the increase in amplitude of the rapid dissociation rate; ns = n; other: 20 nM of NK; % al (at 10 μM); other: compou; fused on or other part: EGFP fused to the receptor as FRET donor; conditions: for % bond reversion (at 10 μM): compound 10 μM; for IC50: read-out: IC50 (μM): concentration of compound for which a 50% reduction is observed in the binding of NKA-Bo, 20 nM of NKA-Bo, EGFP-NK2R receptor
Text: as §1

[3] = test system: cells not expressing the EGFP-NK2R receptor; assay: Calcium response on cells not expressing the receptor; assay type: cell-based; parameters: key: ns: not significant; ?: uniterpretable; conditions: Table 1
[4] = in the presence of 50 μM compound, dissociation by non-fluorescent NKA

SMILES | % al (at 10 μM) [1] [%] | % bond reversion (at 10 μM) [2] [%] | % al (max): maximum value observed for the increase in amplitude of the rapid dissociation rate [1] | EC50 [1] [µM] | IC50 [2] [µM] | Ca Rep.: ability to evoke a calcium response on cells not expressing the EGFP-NK2R receptor [3] | further results
N#CCN(Cc1ccc2ccccc2c1)Cc1ccccc1Br [CV1-80, [(2-bromobenzyl)(2-naphthylmethyl)amino]acetonitrile] | 25 | 16 |  |  |  |  | 
Clc1ccc(CNCc2ccc3ccccc3c2)cc1 [H6, (4-Chloro-benzyl)-naphthalen-2-ylmethyl-amine] |  |  | 80% | 50 to 80 | > 100 |  | 
N#CCN(Cc1ccccc1)Cc1cccc(Br)c1 [CV1-84, [benzyl(3-bromobenzyl)amino]acetonitrile] | 25 | 4 |  |  |  |  | 
Cc1ccc(NC(CC(=O)c2ccccc2)c2ccccc2)nc1 (stereo not drawn) [F9, 3-(5-Methyl-pyridin-2-ylamino)-1,3-diphenyl-propan-1-one] |  |  | ns |  | > 50 |  | EC50 (μM): concentration of compound causing a 50% increase (relative to the maximum value) in the percentage of the amplitude of the rapid dissociation rate [1]: ns
N#CCN(Cc1ccccc1)c1ncc(-c2ccccc2)s1 [compound 809, [benzyl(5-phenyl-1,3-thiazol-2-yl)amino]acetonitrile] |  |  | ≧75% | 1 to 20 | > 100 |  | 
NCCCC(NC(=O)c1ccccc1)C(=O)NC(Cc1ccccc1)C(N)=O (stereo not drawn) [G6, N-(4-amino-1-(1-carbamoyl-2-phenyl-ethylcarbamoyl)-butyl)-benzamide] |  |  | ns |  | 46 |  | EC50 (μM): concentration of compound causing a 50% increase (relative to the maximum value) in the percentage of the amplitude of the rapid dissociation rate [1]: ns; effect on the dissociation kinetics of NKA-Bo ([1]; dissociation by non-fluorescent NKA in the presence of compound): does not alter the dissociation rate; amplitude of the rapid dissociation of NKA-Bo (% of total signal) [1, 4]: 66%; amplitude of the slow dissociation of NKA-Bo (% of total signal) [1, 4]: 33%
N#CCN(Cc1ccccc1)Cc1cccc(Cl)c1Cl [CV1-97] | 34 | 15 |  |  |  |  | 
N#CCN(Cc1ccc(Cl)cc1)Cc1ccc2ccccc2c1 [NP234 or 801, [(4-chlorobenzyl)(2-naphthylmethyl)amino]acetonitrile] |  |  | 60-70% | 5 to 10 | 110 | ns | 
NC(=O)CN(Cc1ccc2ccccc2c1)c1ccccc1 [H10, 2-(Naphthalen-2-ylmethyl-phenyl-amino)-acetamide] |  |  | >60% | > 50 | ≥ 100 | ns | 
N#CCN(Cc1ccc(Cl)c(Cl)c1)Cc1ccc2ccccc2c1 [NP246 or 803, [(3,4-dichlorobenzyl)(2-naphthylmethyl)amino]acetonitrile] |  |  | 60-70% | 10 to 30 | > 500 | ns | fraction of receptors in the low-affinity state ([1]; at 100 μM of effector, approximately 25% in the absence of effector): ~100%
C#CCN(Cc1ccccc1)Cc1ccc2ccccc2c1 [compound 808, N-benzyl-N-(2-naphthylmethyl)-N-prop-2-ynylamine] |  |  | ≧70% | 20 to 30 | > 200 |  | 
N#CCN(Cc1ccccc1)Cc1ccc(Br)cc1 [CV1-85, [benzyl(4-bromobenzyl)amino]acetonitrile] | 28 | 4 |  |  |  |  | 
N#CCN(Cc1ccccc1)Cc1c[nH]c2ccccc12 [CV1-81] | 22 | 15 |  |  |  |  | 
NC(=O)CN(Cc1ccccc1)Cc1ccc2ccccc2c1 [compound 807, 2-[benzyl(2-naphthylmethyl)amino]acetamide] |  |  | ≧90% |  |  | +? | 
N#CCN(Cc1ccc(N)cc1)Cc1cccc2ccccc12 [compound 804, [(4-aminobenzyl)(1-naphthylmethyl)amino]acetonitrile] |  |  | ≧80% | 20 to 30 | > 100 | ns | 
O=C(CC(Nc1ncc(-c2ccccc2)s1)c1ccccc1)c1ccccc1 (stereo not drawn) [F7, 1,3-Diphenyl-3-(5-phenyl-thiazol-2-ylamino)-propan-1-one] |  |  | ≧60% | ≥ 50 | 90 | ns | 
c1ccc(CNc2ncc(-c3ccccc3)s2)cc1 [F3, Benzyl-(5-phenyl-thiazol-2-yl)-amine] |  |  | 65% | 1 to 5 |  |  | 
Nc1ccc(CNCc2ccc3ccccc3c2)cc1 [H3, 4-{[(Naphthalen-2-ylmethyl)-amino]-methyl}-phenylamine] |  |  | ns |  | > 50 | ns | EC50 (μM): concentration of compound causing a 50% increase (relative to the maximum value) in the percentage of the amplitude of the rapid dissociation rate [1]: ns
COC(=O)CN(Cc1ccccc1)Cc1ccc2ccccc2c1 [compound 806, methyl [benzyl(2-naphtylmethyl)amino]acetate] |  |  | 90% | 10 to 20 | > 200 | ns | 
N#CCN(Cc1ccc(CCc2ccccc2)cc1)Cc1ccc2ccccc2c1 [CV1-135] | 22 | 6 |  |  |  |  | 
CC(=O)NC1(c2ccccc2)CCN(CC[C@H](CN(C)C(=O)c2ccccc2)c2ccc(Cl)c(Cl)c2)CC1 [SR 48968, reference compound] |  |  |  |  |  |  | ratio of rapid/slow amplitudes of dissociation of NKA-Bo ([1]; each tested concentration of SR 48968): 45/55; relative amplitude of rapid dissociation (0.04 s^-1) of NKA-Bo ([1]; in the presence of 0.2, 1 and 5 nM of SR 48968): 45%
N#CCN(Cc1ccc(Br)cc1)Cc1ccc2ccccc2c1 [CV1-93, [4-bromobenzyl(2-naphthylmethyl)amino]acetonitrile] | 26 | 3 |  |  |  |  | 
CCOC(=O)c1ccc(CN(CC#N)Cc2ccc3ccccc3c2)cc1 [G11, 4-[(Cyanomethyl-naphthalen-2-ylmethyl-amino)-methyl]-benzoic acid ethyl ester] |  |  | 70% | 10 to 30 | > 100 | ns | 
N#CCN(Cc1ccccc1)Cc1cccc(Cl)c1 [CV1-123] | 26 | 7 |  |  |  |  | 
N#CCN(Cc1ccccc1)Cc1ccc(Cl)cc1 [CV1-122] | 31 | 17 |  |  |  |  | 
